Source: patent US20260242359A1, “IRHOM2 INHIBITORS AND USES THEREOF” (NEW YORK SOCIETY FOR THE RELIEF OF THE RUPTURED AND …, priority 2023, published 2026)
Read-outs that look alike come from different tables or passages of the source.

Key:
[1] = tested on: LPS-induced release of endogenous TNFα from human THP-1 macrophage cells; experiment: Example 12: ELISA-based TNFα release assay, LPS-induced, THP-1 macrophage cells; type: cell-based; details: for inhibition at 10 µM: Homo sapiens, THP-1, 2 h, read-out: inhibition of LPS-induced release of TNFα from THP-1 cells
Method: In the following study, ELISA-based TNFα release assay was performed to verify the inhibitory effects of Compounds 1, 2, 3, 4, 5, and 7 on LPS-induced release of endogenous TNFα from human THP-1 macrophage cells. The ELISA-based TNFα release assay that was used in this example is described below.
In brief, on day 1, Nunc black MaxiSorp® 96-well plates (Thermo Fisher Scientific, USA) were coated overnight with 100 μl per well of mouse anti-human TNFα capture antibody (provided as part of the DuoSet ELISA kit) at 4 μg/ml TBS at 4° C. On day 2, the capture antibody solution was removed and MaxiSorp® plates were blocked with 300 μl per well of TBS, 1% BSA at room temperature for 3 hours. Meanwhile, 20,000 THP-1 (American Type Culture Collection, USA) cells in 80 μl of normal growth medium were seeded in each well of Greiner CELLSTAR V-bottom 96-well plates (Thermo Fisher Scientific, USA) and pre-incubated with 20 μl per well of standard growth medium supplemented with Batimastat (BB94, Abcam, UK) at 50 μM as positive control (for a final concentration of 10 μM in the resulting 100 μl sample volume), compounds of the invention at 50 μM (for a final concentration of 10 μM in the resulting 100 μl sample volume) and in case of Buffer stimulated and unstimulated controls with DMSO (Carl Roth, Germany) at 50 μM (for a final concentration of 10 μM in the resulting 100 μl sample volume) at 37° C., 5% CO2 for 30 minutes. Subsequently, cells (except those for unstimulated controls) were stimulated with 20 μl per well of LPS (Sigma-Aldrich, USA) at 300 ng/ml growth medium for a final concentration of 50 ng/ml at 37° C., 5% CO2 for 2 hours. Afterwards, the 96-well plates were centrifuged to pellet cells. In parallel, blocking buffer was removed from the MaxiSorp® plates and plates were washed 4 times with 350 μl per well of TBS-T (Carl Roth, Germany) on a 96-head plate washer (Tecan Group, Switzerland). To avoid drying-up, 30 μl of TBS were added to each well of the MaxiSorp® plates immediately, followed by the transfer of 70 μl of cell-free supernatant per sample. Additionally, 100 μl of recombinant human TNFα protein (provided as part of the DuoSet ELISA kit) diluted in TBS at defined concentrations were added to the plate as standard references. Thereafter, 100 μl per well of biotinylated goat anti-human TNFα detection antibody (provided as part of the DuoSet ELISA kit) at 50 ng/ml TBS were added and, protected from direct light, plates were incubated at room temperature for 2 hours. After 4 times washing with 350 μl per well of TBS-T (Carl Roth, Germany) on a 96-head plate washer (Tecan Group, Switzerland) and careful removal of all buffer traces after the fourth cycle, 100 μl of streptavidin-AP (R&D Systems, USA) diluted 1:10,000 in TBS were added to each well and, again protected from direct light, plates were incubated at room temperature for 30 minutes. Following another round of 4 times washing with 350 μl per well of TBS-T (Carl Roth, Germany) on a 96-head plate washer (Tecan Group, Switzerland) and careful removal of all buffer traces after the fourth cycle, 100 μl of AttoPhos substrate solution (Promega, USA) was added for incubation in the dark at room temperature for 1 hour. Using an infinite M1000 PRO (Tecan Group, Switzerland) microplate reader, the fluorescence of each well was collected at an excitation wavelength of 435 nm and an emission wavelength of 555 nm.
The delta between Buffer stimulated and Buffer unstimulated was defined 100% inhibition.

[2] = tested on: PMA-stimulated TGFα release from HEK-293 cells (substrate of iRhom1/ADAM17 and iRhom2/ADAM17); experiment: Counter screen (Example 4b): PMA-stimulated TGFα release from HEK-293 cells, AP readout; type: cell-based; details: Homo sapiens, HEK293, HEK-293 cells expressing TGFα-AP, PMA 100 ng/mL, 2 h
Method: A tertiary counterscreen was also performed to monitor the release of TGFα, which is a substrate of iRhom1/ADAM17 and iRhom2/ADAM17, so its release should not be blocked by an iRhom2-selective inhibitor (Maretzky T et al. (July 2013), “iRhom2 controls the substrate selectivity of stimulated ADAM117-dependent ectodomain shedding”, PNAS 110(28): 11433-11438; and Li X et al. (May 2015), “iRhoms 1 and 2 are essential upstream regulators of ADAM17-dependent EGFR signaling”, PNAS 112(19): 6080-6085).
Expression plasmids for alkaline phosphatase (AP)-fused human KL2 and TGFα had been previously designed and generated through gene synthesis followed by subcloning into the pcDNA3.1(+)/Hygro expression vector. […] Subsequently, DNA amplifications were performed to obtain sufficient amounts of the expression vectors. The quality of DNA and gene sequences were confirmed through restriction digest and Sanger sequencing. In parallel, cell culture of HEK-293 cells was initiated. Master and working cell banks were prepared, scaled up and transfected with the respective constructs by electroporation. During cell culturing, cell density and viability were monitored to ensure optimal conditions for the transfections. After PMA stimulation, AP-coupled KL2 or TGFα were detected by measurement of AP activity in the supernatant.
After electroporation, cells were further cultured in presence of selection antibiotics, hygromycin B, to generate stably transfected polyclonal cell pools. For both assays, KL2 and TGFα shedding, the respective selected pool turned out to be suitable. Final assay conditions were determined for the selected pools. For all experiments, batimastat (BB94, 10 μM) was used as positive control for full inhibition of KL2 or TGFα shedding.
The wells of sterile 384-well flat bottom clear plates for TGF-AP assays were coated with 10 μL of 0.1 mg/mL poly-d-lysine for 3-4 hr at 25° C. or overnight at 4° C., then washed 2× with PBS and patted dry. 60 μL of cells (20,000/well) were added to the sterile 384-well plate and incubated in Optimem (with 2% FCS and 1% Pen-strep) overnight at 37° C. (5% CO2). After incubation overnight, 55 μL medium were removed with a BioTek EL406 and 10 μL of prediluted compounds were added to the cells for a final concentration of 20 μM. After incubation for 15 min, 15 μL of PMA (100 ng/mL final conc.) were added. The cells were incubated for 2 h at 37° C. (5% CO2). Then, the plates were centrifuged for 5 min at 1000 rpm and 12 μL of the supernatant was transferred to a fresh 384 well plate. 12 μL of pNPP p-nitrophenyl phosphate (final 1 M pNPP) was added. AP reaction was performed for 1 h at 37° C. The reaction was stopped by addition of 12 μL of NaOH (1 M final conc.), the plates were centrifuged to remove air bubbles and the absorbance of pNP was measured at 405 nm.

[3] = 10 μM final concentration, LPS 50 ng/ml, 2 hours, delta Buffer stimulated vs unstimulated = 100% inhibition

SMILES | inhibition of LPS-induced release of TNFα from THP-1 cells [1, 3] [%] | inhibition at 10 µM [1, 3] [%] | inhibition at 10 µM [1] [%] | IC50 [2] [µM]
CNC(=O)[C@H](Cc1ccccc1)NC(=O)[C@H](CC(C)C)[C@H](CSc1cccs1)C(=O)NO [Batimastat, reference compound] | 94.9 | 87.4 |  | 
CCC(=O)NCCc1c(/C=C2/C(=O)NC(=O)N(c3ccc(C)cc3C)C2=O)[nH]c2ccccc12 [Compound 1] |  |  | 100 | 
CCOC(=O)c1ccc(Nc2nc3nonc3n3nnnc23)cc1 [Compound 2] |  | 94.6 |  | 
O=C(c1c(Cl)cccc1Cl)N1CCC(Cc2ccc(F)cc2)CC1 [Compound 3] |  | 93.1 |  | > 40
Cc1c(C(=O)NCc2cccs2)sc(=O)n1Cc1ccccc1 [Compound 4] |  | 58.2 |  | > 40
Cc1c(C(=O)NCc2cccs2)sc(=O)n1Cc1ccccc1F [Compound 5] |  | 66.1 |  | > 40
Cc1c(C(=O)NCc2ccco2)sc(=O)n1Cc1ccccc1F [Compound 7] |  | 85.8 |  | > 40
